Experimental data published in US20090054403A1, “Treatment of Post-Traumatic Stress Disorder” (priority 2007, published 2009).
Where two headings read alike, the source gives them in different places.

Experiments:
[1] = tested on: tissue norepinephrine and dopamine levels; experiment: Tissue catecholamines in iodine-deficient rats after 10 days b.i.d. dosing; type: in vivo, Sprague-Dawley rats; details: day 10; for dopamine/norepinephrine ratio vs vehicle, mesenteric artery: hydrochloride
Protocol: Male Sprague-Dawley rats, weighing 180-200 grams, were fed an iodine deficient diet (Purina, 5891C, Lot 1478, 0.066±0.042 mg iodine/kg sample) ad libitum 14 days prior to treatment. Animals were weighed and randomly assigned to one of the following treatment groups (n=12 per group): Nepicastat at 2.0 mg/kg, Nepicastat at 6.2 mg/kg, R, Methimazole at 1 mg/kg, or vehicle at 1 ml/kg. Each group of rats was dosed orally in the evening and the following morning, approximately 12 hours apart, for 10 consecutive days.
At four hours after the second dose, on day 10, rats were anesthetized with halothane, decapitated, and the cortex, striatum, and mesenteric artery were harvested and weighed. Tissue samples were not harvested from the methimazole groups as they only served as positive controls for determination of thyroid function. The mesenteric artery, cortex, and striatum were immediately placed in 0.4M iced perchloric acid and analyzed for norepinephrine and dopamine levels the same day using HPLC.
To statistically evaluate changes in T3 and T4 levels, a change from baseline was calculated from the day-3 time point. A non-parametric two-way within subject analysis of variance (ANOVA) was conducted. Also a one-way ANOVA was performed to detect if a significant difference from control occurred. Pairwise analyses between controls and each treatment group were carried out using Fisher's LSD strategy to control the experiment-wise error rate. For statistical analysis of catecholamine levels, a one-way ANOVA with factor DOSE was performed. Pairwise analyses between treated and controls at each dose were carried out using Fisher's LSD strategy to control the experiment-wise error rate.

[2] = Pharmacokinetics after single oral dose in rats (plasma and brain); type: in vivo, rats (Crl: CD BR Vaf+); details: for half-life: Crl: CD BR Vaf+, rat, plasma, read-out: elimination half-life (converted)
Protocol: Male rats (Crl: CD BR Vaf+) weighing 180-220 g were fasted overnight before dosing and until 4 hr after dosing. Doses were formulated in water containing 2% 1-hydroxypropyl methylcellulose (50 centipoises viscosity), 1% benzyl alcohol, and 0.6% Tween 80 (all obtained from Sigma Chemical Company). Concentration of drug in the dose solutions was 5, 15, and 50 mg/ml for the 10, 30, and 100 mg/kg doses, respectively, and was verified by liquid chromatography (LC). The 5 mg/ml dose was a clear solution and the higher concentrations were a translucent suspension. Dose volumes were 2.0 ml/kg. At various times after dosing, samples of blood were obtained by cardiac puncture with heparinized syringes, and plasma was prepared by centrifugation. Brains of rats were surgically excised, and all samples were frozen at −20° C. until analysis.
Aliquots of plasma (0.05 or 0.5 ml) were mixed with internal standard (50 μl of methanol containing 5 μg/ml a monofluoro analog of nepicastat, and 5 mg/ml dithiothreitol). Samples were mixed with 200 mM sodium phosphate buffer, pH 7.0, (0.5 ml) and extracted with 3 ml of ethyl acetate/hexane (1/1, v/v). The organic phase containing analytes was back extracted with 250 μl of 250 mM acetic acid and 100 μl aliquots of the aqueous phase were assayed by LC. The LC system used a Keystone Hypersil BDS 15 cm C8 column at ambient temperature. Mobile phase A was 12.5 mM potassium phosphate, pH 3.0, with 5 mM dodecanesulfonic acid and mobile phase B was acetonitrile. Solvent composition was 40% B and was pumped at a flow rate of 1 ml/min. Detection was by UV absorption at 261 nm. Concentrations of analytes were determined from a standard curve generated from the analysis of plasma from untreated rats fortified with known concentrations of analyte. Plasma concentration data are expressed as μg (free base) per ml.
Brains were rinsed briefly with saline, blotted on a paper towel, then weighed (1.5-2.0 g). Internal standard was added (50 μl of methanol containing 20 μg/ml a monofluoro analog of nepicastat), and brains were homogenized in 5 ml of 200 mM sodium phosphate, pH 7.0, containing 0.5 mg/ml dithiothreitol. Aliquots of homogenate (2 ml) were extracted with 10 ml of ethyl acetate/hexane (1/1, v/v). The organic phase was gently back extracted with 150 μl of 250 mM acetic acid.
Following addition of 100 μl of methanol to the aqueous phase (to disperse any emulsion), 100 μl aliquots were assayed by LC as described for plasma. Level in brain are expressed as μg (free base) per g of brain tissue.
Pharmacokinetic parameters were calculated from mean plasma concentrations. Plasma half-life (T1/2) was calculated as 0.693/β, where β is the elimination rate constant determined by linear regression of the log plasma concentration vs. time data within the terminal linear portion of the data. Areas under the plasma concentration vs. time curve (AUC) from zero to the time of the last quantifiable plasma concentrations were calculated by the trapezoidal rule. AUC from zero to infinity (AUCtotal) was calculated as:
AUCtotal=AUC(0−Clast)+Clastβ where Clast is the last quantifiable plasma concentration.

[3] = tested on: aortic contractile response to phenylephrine; experiment: Aortic contractile response in vitro to phenylephrine after 21 days treatment; type: in vivo, SHR; details: 10 mg/kg p.o. daily for 21 days
[4] = tested on: blood pressure, heart rate, motor activity; experiment: Radio-telemetry blood pressure, heart rate, motor activity in normotensive rats, 7 days; type: in vivo, normotensive Wistar rats (Crl:COBS(WI)BR)
Protocol: Male Crl:COBS(WI)BR rats of 15 weeks old were used. Twenty-four rats were chronically implanted with telemetry implants (TA11PA-C40, Data Sciences, Inc., St. Paul, Minn.) for measurement of arterial blood pressure, heart rate and motor activity. The rat was anesthetized with pentobarbital sodium (60 mg/kg, ip) and its abdomen shaved. Under aseptic conditions, an incision was made on midline. The abdominal aorta was exposed, and cannulated with the catheter of a telemetry transmitter unit. After the transmitter was sutured to the abdominal musculature, the skin was closed. Each rat was allowed to recover for at least 2 weeks before being subjected to drug administration. Three days prior to the start of the experiment, the rats were randomly divided into 4 treatment groups: Vehicle (p.o.), Hydralazine (10 mg/kg, p.o.), nepicastat (30 mg/kg, p.o.), nepicastat (100 mg/kg, p.o.).
Systolic blood pressure (SBP), diastolic blood pressure (DBP), mean blood pressure (MBP), heart rate (HR), and motor activity (MA) were monitored. After the pre-dose values for these parameters were established, respective groups of rats received a 7 day daily treatment of vehicle, nepicastat or hydralazine.
Both nepicastat and hydralazine were prepared in water with traces of Tween 80. All doses were given orally to the rat in 10 ml/kg and were expressed as free base equivalents.
A computerized data collection system was used to continuously collect data on SBP, DBP, MBP, HR, and MA. Data on each rat were collected every 5 min. for 10 sec. These were then averaged hourly and standard errors of the mean (SE) calculated. In this report, only data on MBP, HR and MA were presented. […] Body weights were recorded daily.

Q: Which “norepinephrine levels vs vehicle, cortex” value ([1]; 2.0 and 6.2 mg/kg b.i.d.) does the source give for Cl.NCc1c[nH]c(=S)n1[C@H]1CCc2c(F)cc(F)cc2C1 [nepicastat, (S)-5-Aminomethyl-1-(5,7-difluoro-1,2,3,4-tetrahydronaphth-2-yl)-2,3-dihydro-2-thioxo-1H-imidazole hydrochloride] here?
A: not significantly (p>0.05) different

Q: And the “norepinephrine levels vs vehicle, mesenteric artery” value ([1]; 2.0 and 6.2 mg/kg b.i.d.)?
A: significantly (p<0.05) lower

Q: What about the “norepinephrine levels vs vehicle, striatum” value ([1]; 2.0 and 6.2 mg/kg b.i.d.) of the same compound?
A: marginally (p<0.10) lower

Q: And the “dopamine/norepinephrine ratio vs vehicle, mesenteric artery” value ([1]; 2.0 and 6.2 mg/kg b.i.d.)?
A: significantly (p<0.05) higher

Q: What about the “dopamine/norepinephrine ratio vs vehicle, mesenteric artery” value ([1]; 2.0 and 6.2 mg/kg b.i.d., listed as 2a) of the same compound?
A: significantly raised

Q: And the “dopamine/norepinephrine ratio vs vehicle, cortex and striatum” value ([1]; 2.0 and 6.2 mg/kg b.i.d., listed as RS-25560-197, hydrochloride)?
A: not significantly (p>0.05) different

Q: And the “dopamine levels vs vehicle, cortex, striatum and mesenteric artery” value ([1]; 2.0 or 6.2 mg/kg b.i.d.)?
A: not significantly (p>0.05) different

Q: And the “concentrations in brain relative to plasma” value ([2]; 10 mg/kg oral, male rats, from 2 hr following dosing onward)?
A: exceeded those in plasma

Q: What about the “plasma AUCtotal in female rats relative to male rats (higher by)” value ([2]; 30 mg/kg oral) of the same compound?
A: 77%

Q: What about the “relationship between AUCtotal and dose” value ([2]; 10-100 mg/kg oral, male rats) of the same compound?
A: linear

Q: What about the half-life ([2]; 10 mg/kg oral, male rats) of the same compound?
A: 102 min

Q: And the half-life ([2]; 30 mg/kg oral, male rats)?
A: 125 min

Q: What about the half-life ([2]; 100 mg/kg oral, male rats) of the same compound?
A: 233 min

Q: And the aortic phenylephrine responsiveness [3]?
A: restored phenylephrine responsiveness

Q: And the “peak decrease in blood pressure (peak hypotensive effect)” value ([4]; 30 mg/kg/d po, day 2 at hour 13)?
A: −10 mmHg

Q: And the “peak antihypertensive response on day 1” value ([4]; 100 mg/kg po, 22 hr after dosing)?
A: −11 mmHg

Q: What about the bradycardic response ([4]; 100 mg/kg, day 2, 3 hours after dosing) of the same compound?
A: −100 b/mm

Q: What about the “effect on HR” value ([4]; nepicastat 30 and 100 mg/kg (day 1), hydralazine 10 mg/kg (throughout)) of the same compound?
A: did not consistently affect HR on day 1
